Earlier results on 1 molecule are cited in patent publication US6525037B1, “Method of treating atherosclerosis and complications resulting therefrom” (BioNumerik Pharmaceuticals, Inc., priority 2000, dated 2003).

The conditions of the series: accepted value.

With `[Cl-].[Na+]` [common table salt], the “oral LD50” value is 3750 mg/kg.
